EC50 data for one molecule are collected here from article PMC12149313 (Cell Death & Disease, 2025).

The subject of the test is T1, β-tubulin.
T1 construct: gene TUBB
The test is described as follows: ITDR-CETSA of β-tubulin at […] °C in CFPAC-1 COMT-/- cells. It is filed as cell-based.

One may read the EC50 as the concentration giving half of the maximal effect. As to `CNc1nc2ccccc2n2c(-c3ccc(OC)c(O)c3)cnc12` [EAPB04303], the EC50 came out at 3 ± 2 µM.
